Legend:
LOVO (colon) xenograft = assay: in vivo activity in LOVO xenograft model; parameters: species or system human; conditions: LOVO (colon) xenograft in nude mice; 10 mg/kg daily po; 21 days following commencement of treatment
Description: (§1) Female nu/nu (nude) mice obtained from Charles River Laboratories (Wilmington, Mass.) or female SCID-beige mice (Taconic, Germantown, N.Y.) were used (10 mice/group) when they were approximately 8 to 14 weeks old and weighed approximately 23 to 25 grams. All animal experiments were performed in accordance with protocols approved by the Roche Animal Care and Use Committee (RACUC).
(§2) The human cancer cell lines LOVO, BxPC3, HCT-116, A549, AsPC-1, MiaPaCa-2, and Calu-6 were purchased from the American Type Culture Collection. The H460a cell line was a gift from Dr. Jack Roth (M. D. Anderson Medical Center).
(§3) For xenograft implantation, cells were harvested using 0.05% trypsin, washed and centrifuged in culture medium, and resuspended in either a 1:1 mixture of phosphate buffered saline (PBS) and Matrigel (BxPC-3) or PBS alone (A549, H460a, LOVO, Calu-6, HCT-116, MiaPaca-2, and AsPC-1) at a concentration of 1.5-5×10^7 cells per mL. […]
(§4) Tumor measurements and mouse weights were taken twice per week. Statistical analysis was determined by Mann-Whitney Rank Sum Test, 1-way ANOVA, and post hoc Bonferroni t-test (SigmaStat, version 2.0, Jandel Scientific, San Francisco, Calif.). […]
(§5) Tumor growth inhibition (TGI %) was measured 21 days following the commencement of the treatment.

[1] = test system: BxPC3 (pancreatic) xenograft; assay: in vivo activity in BxPC3 xenograft model; parameters: species or system human; conditions: BxPC3 (pancreatic) xenograft in SCID-beige mice; 10 mg/kg daily po; 21 days following commencement of treatment
Description: as §1, §2, §3, §4, §5

[2] = test system: HCT-116 (colon) xenograft; assay: in vivo activity in HCT-116 xenograft model; parameters: species or system human; conditions: HCT-116 (colon) xenograft in nude mice; 10 mg/kg daily po; 21 days following commencement of treatment
Description: as §1, §2, §3, §4, §5

A549 (NSCLC) xenograft = assay: in vivo activity in A549 xenograft model; parameters: species or system human
Description: as §1, §2, §3, §4
Tumor growth inhibition (TGI %) was measured 21 days following the commencement of the treatment. […]

[3] = test system: AsPC-1 (pancreatic) xenograft; assay: in vivo activity in AsPC-1 xenograft model; parameters: species or system human; conditions: AsPC-1 (pancreatic) xenograft in nude mice; 10 mg/kg daily po; 21 days following commencement of treatment
Description: as §1, §2, §3, §4, §5

[4] = test system: MiaPaCa-2 (pancreatic) xenograft; assay: in vivo activity in MiaPaCa-2 xenograft model; parameters: species or system human; conditions: MiaPaCa-2 (pancreatic) xenograft in nude mice; 10 mg/kg daily po; 21 days following commencement of treatment
Description: as §1, §2, §3, §4, §5

Calu-6 (NSCLC) xenograft = assay: in vivo activity in Calu-6 xenograft model; parameters: species or system human; conditions: Calu-6 (NSCLC) xenograft in nude mice; 60 mg/kg daily every other week for 4 weeks (7+/7- x 2 cycles) po; 21 days following commencement of treatment
Description: as §1, §2, §3, §4, §5

H460a (NSCLC) xenograft = assay: in vivo activity in H460a xenograft model; parameters: species or system human
Description: as §1, §2
For xenograft implantation, cells were harvested using 0.05% trypsin, washed and centrifuged in culture medium, and resuspended in either a 1:1 mixture of phosphate buffered saline (PBS) and Matrigel (BxPC-3) or PBS alone (A549, H460a, LOVO, Calu-6, HCT-116, MiaPaca-2, and AsPC-1) at a concentration of 1.5-5×10^7 cells per mL. A volume of 0.2 mL cell suspension (7.5×10^6 cells for A549, 1×10^7 cells for H460a, 3×10^6 cells for Calu-6 and HCT116, 5×10^6 cells for BxPC3 and AsPC-1, 6×10^6 cells for MiaPaca-2, and 5×10^6 for LOVO) per mouse was implanted subcutaneously in the right flank. All xenograft models were implanted into nude mice with the exception of BxPC3, which was implanted into SCID-beige mice. Tumors were allowed to grow for 8 to 26 days post implant when mean volume reached ˜100-150 mm^3, after which animals were randomized into treatment groups.
Compound I (synthesized according to the procedure described in WO2005/023772) was formulated as a suspension in 1.0% Klucel in water with 0.2% Tween®-80 for oral (po) administration. Formulated compound and vehicle were prepared weekly and stored at 4° C. In the Calu-6 xenograft model, Compound I was dosed at 60 mg/kg daily every other week for 4 weeks (7+/7−×2 cycles). All other xenograft models were dosed with Compound I at 10 mg/kg daily.
Tumor measurements and mouse weights were taken twice per week. Statistical analysis was determined by Mann-Whitney Rank Sum Test, 1-way ANOVA, and post hoc Bonferroni t-test (SigmaStat, version 2.0, Jandel Scientific, San Francisco, Calif.). Differences between groups were considered significant when the probability value (p) was ≦0.05.
as §5
(§6) Cells from the aforementioned four groups and parental A549 and H460a cells were used to make xenograft models using the procedure described in Example 1. […]

[5] = test system: A549 vector control tumors; assay: in vivo activity in A549 vector control xenograft model; parameters: species or system human; conditions: Example 5, 10 mg/kg once daily, after 21 days
Description: (§7) IL6 and IL8 lentiviruses were made using IL6 and IL8 plasmids (available from Genecopoeia, Rockville, Md., USA), respectively. A549 cells were divided into three groups with one group receiving a vector control, one group being infected with the IL6 lentivirus and the third group being infected with the IL8 lentivirus. The later two groups formed cell pools with stable expression of exogenous IL6 and IL8, respectively.
as §6

[6] = test system: A549 cells overexpressing IL6 (xenograft); assay: in vivo activity in IL6-overexpressing A549 xenograft model; parameters: species or system human; conditions: Example 5, 10 mg/kg once daily, after 21 days
Description: as §7, §6

[7] = test system: A549 cells overexpressing IL8 (xenograft); assay: in vivo activity in IL8-overexpressing A549 xenograft model; parameters: species or system human; conditions: Example 5, 10 mg/kg once daily, after 21 days
Description: as §7, §6

[8] = test system: 1:1 mixture of A549 overexpressing IL6 or IL8 (xenograft); assay: in vivo activity in xenograft of 1:1 mixture of IL6- and IL8-overexpressing A549 cells; parameters: species or system human; conditions: Example 5; tumors from 1:1 mixture of A549 overexpressing IL6 or IL8; 10 mg/kg once daily; after 21 days
Description: as §7
A portion of the IL6 overexpressing A549 cells and the IL8 overexpressing A549 cells were then combined to form a fourth group containing a 1:1 mixture of such cells.
as §6

Hes1 mRNA = assay: downregulation of Hes1 mRNA following in vitro treatment (Notch signaling blockage); type: cell-based, human
Description: Expression of IL6 and IL8 was then quantified in the BxPC3, HCT-116, A549, AsPC-1, MiaPaCa-2, and Calu-6 cell lines by measuring the level of mRNA using qRT-PCR. RNA isolation, and reverse transcription-PCR (RT-PCR) were done using standard laboratory techniques. The catalogue numbers for each probe set were Hes1 (Hs00172878_ml), ACTB (4333762F), IL6 (Hs00174131_ml), IL8 (Hs00174103_ml) and 18S (4319413E).

[9] = test system: IL8-knockdown H460a xenograft; assay: in vivo activity in IL8-knockdown H460a xenograft model; parameters: species or system human; conditions: Example 6; IL8-knockdown H460a tumors; 10 mg/kg once daily for 21 days
Description: Lentiviruses were made using pLKO.1-based anti-IL8 shRNA (purchased from Open Biosystems) and used to stably knockdown IL8 expression in H460a cells. […] IL8-knockdown H460a cells, however, still had more than 2-fold higher IL8 levels compared to A549 cells.
Parental H460a cells and IL8-knockdown H460a cells were then implanted as xenografts in mice using the procedures described in Example 1. The mice were then randomized into different treatment groups (10 mice/group): H460a xenograft mice receiving vehicle once daily, H460a xenograft mice receiving Compound I at 10 mg/kg once daily, IL8-knockdown H460a xenograft mice receiving vehicle once daily, and IL8-knockdown H460a xenograft mice receiving Compound I at 10 mg/kg once daily.

[10] = test system: U87MG (glioblastoma) xenograft; assay: in vivo activity in U87MG xenograft model; parameters: species or system human; conditions: U87MG xenograft in nude mice; 10 mg/kg once daily for 21 days
Description: (§8) The human cancer cell lines U87MG and LOX were purchased from the American Type Culture Collection. Xenografts were implanted in female nu/nu (nude) mice obtained from Charles River Laboratories (Wilmington, Mass.) (10 mice/group) when they were approximately 8 to 14 weeks old and weighed approximately 23 to 25 grams. All animal experiments were performed in accordance with protocols approved by the Roche Animal Care and Use Committee (RACUC). For xenograft implantation, cells were harvested using 0.05% trypsin, washed and centrifuged in culture medium, and resuspended in either a 1:1 mixture of phosphate buffered saline (PBS) and Matrigel (U87MG) or PBS alone (LOX) at a concentration of 1.5-5×10^7 cells per mL. A volume of 0.2 mL cell suspension (5×10^6 cells for U87MG, 2×10^6 cells for LOX) per mouse was implanted subcutaneously in the right flank. Tumors were allowed to grow for 8 to 26 days post implant when mean volume reached ˜100-150 mm^3, after which animals were randomized into treatment groups: U87MG xenograft mice receiving vehicle (Klucel and Tween) once daily, U87MG xenograft mice receiving Compound I at 10 mg/kg once daily for 21 days, LOX xenograft mice receiving vehicle (Klucel and Tween) once daily, and LOX xenograft mice receiving Compound I at 10 mg/kg once daily for 11 days.

LOX (melanoma) xenograft = assay: in vivo activity in LOX xenograft model; parameters: species or system human; conditions: LOX xenograft in nude mice; 10 mg/kg once daily for 11 days
Description: as §8

[11] = test system: genes associated with angiogenesis; conditions: Luistro et al., Cancer Research 69:7672-80 (2009), cited from earlier work
[12] = test system: H460a, A549 parental, A549 control, A549 IL6, A549 IL8 and 1:1 mixture xenograft models; assay: Taxol positive drug control across the xenograft models of Example 5; type: in vivo, human; conditions: 30 mg/kg, all xenograft models of FIG. 5
Description: as §6

Q: Which results are given for `CC(C)(C(=O)NCC(F)(F)C(F)(F)F)C(=O)N[C@@H]1C(=O)Nc2ccccc2-c2ccccc21` [Compound I, 2,2-dimethyl-N-((S)-6-oxo-6,7-dihydro-5H-dibenzo[b,d]azepin-7-yl)-N′-(2,2,3,3,3-pentafluoro-propyl)-malonamide]?
A: TGI % (LOVO (colon) xenograft): 83%; TGI % [1]: 82%; TGI % [2]: 76%; TGI % (A549 (NSCLC) xenograft; A549 (NSCLC) xenograft in nude mice, 10 mg/kg daily po, 21 days following commencement of treatment): 70%; TGI (A549 (NSCLC) xenograft; Example 5, parental A549 tumors, 10 mg/kg once daily, after 21 days): 71%; TGI % [3]: 58%; TGI % [4]: 53%; TGI % (Calu-6 (NSCLC) xenograft): 42%; TGI (H460a (NSCLC) xenograft; Example 5, H460a xenograft (high IL6 and IL8), 10 mg/kg once daily, after 21 days): 9%; TGI (H460a (NSCLC) xenograft; Example 6, parental H460a tumors, 10 mg/kg once daily for 21 days): 5%; TGI (H460a (NSCLC) xenograft; Example 7, H460a xenograft, Compound I 10 mg/kg once daily, anti-IL8 antibody 20 mg/kg twice weekly): 10%; TGI (H460a (NSCLC) xenograft; Example 8, H460a xenograft, Compound I 10 mg/kg once daily, anti-IL6 antibody 20 mg/kg twice weekly): 43%; TGI % (H460a (NSCLC) xenograft; H460a (NSCLC) xenograft in nude mice, 10 mg/kg daily po, 21 days following commencement of treatment (Example 1)): 8%; TGI [5]: 61%; TGI [6]: 32%; TGI [7]: 45%; TGI [8]: 8%; downregulation of Hes1 mRNA (Hes1 mRNA; A549 overexpressing IL6): properly maintained; downregulation of Hes1 mRNA (Hes1 mRNA; A549 overexpressing IL8): properly maintained; downregulation of Hes1 mRNA (Hes1 mRNA; LOX cells): properly maintained; downregulation of Hes1 mRNA (Hes1 mRNA; U87MG cells): properly maintained; TGI [9]: 24%; TGI [10]: −17%; TGI (LOX (melanoma) xenograft): 15%; change in the angiogenic gene profile ([11]; H460a xenograft): little change; expression of genes associated with angiogenesis ([11]; treated xenografts): reduced expression

Q: For `CC(=O)O[C@H]1C(=O)[C@@]2(C)[C@H]([C@H](OC(=O)c3ccccc3)[C@]3(O)C[C@H](OC(=O)[C@H](O)[C@@H](NC(=O)c4ccccc4)c4ccccc4)C(C)=C1C3(C)C)[C@]1(OC(C)=O)CO[C@@H]1C[C@@H]2O` [Taxol®], which “TGI (positive drug control)” value [12] is on record?
A: consistent TGI across the various models
